Test results taken from patent US20110045101A1, “FUNGICIDAL SUBSTITUTED AZOLES” (E.I. Du Pont De Nemours and Company, priority 2009, published 2011).
Marks after values point to notes of the source that are not given here.

How the values were obtained:
Assay type in all cases: in vivo
Conditions in all cases: 100 = 100% disease control
[1] = system: Puccinia recondita f. sp. tritici; experiment: Test I: wheat leaf rust on wheat seedlings, sprayed the day before inoculation, visual disease rating
How it was run: (§1)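 Plants received a run-off spray at 200 ppm (equivalent to 500 g/ha) or, for starred values, 40 ppm. Formulation used acetone at 3% of volume in a 50/50 acetone/water mix carrying 250 ppm Trem® 014.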

Alternaria solani = experiment: Test D: tomato early blight, sprayed the day before inoculation, visual disease rating
How it was run: as §1

Septoria tritici = experiment: Test G: wheat leaf blotch on wheat seedlings, sprayed the day before inoculation, visual disease rating
How it was run: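 Spray to run-off, 200 ppm (≈500 g/ha; starred = 40 ppm), acetone/water 50/50 + 250 ppm Trem® 014. Spore inoculation +1 d. 24° C saturated 48 h → 20° C 19 d. Visual rating.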

Botrytis cinerea = experiment: Test C: tomato Botrytis on tomato seedlings, sprayed the day before inoculation, visual disease rating
How it was run: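 Rate: 200 ppm sprayed to run-off, corresponding to 500 g/ha; flagged values used 40 ppm. Vehicle was aqueous acetone (1:1) plus 250 ppm surfactant, compounds predissolved in acetone at 3% of volume. Plants were tomato seedlings.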

[2] = system: Erysiphe graminis f. sp. tritici; experiment: Test J: wheat powdery mildew on wheat seedlings, sprayed the day before inoculation, visual disease rating
How it was run: as §1

Septoria nodorum = experiment: Test F: wheat glume blotch on wheat seedlings, sprayed the day before inoculation, visual disease rating
How it was run: as §1

[3] = 200 ppm, 0 = no control relative to controls
[4] = 40 ppm (marked *), 0 = no control

Structure (SMILES)	Test I disease control rating [1, 3] [%]	Test D disease control rating (Alternaria solani; [3]) [%]	Test G disease control rating (Septoria tritici; [3]) [%]	Test C disease control rating (Botrytis cinerea; [3]) [%]	Test J disease control rating [2, 3] [%]	Test F disease control rating (Septoria nodorum; [3]) [%]	other results
Cc1nc(Cl)c(-c2c(F)ccc(F)c2F)n1-c1ccc(F)cc1 [compound 145]	100	100	100	99	100	100	
COc1cc(F)c(-c2c(Cl)nc(Br)n2-c2ccc(C)cc2)c(F)c1 [compound 148]							Test I disease control rating ([1]; 200 ppm, 0 = no control): 100%; Test D disease control rating (Alternaria solani; 200 ppm, 0 = no control): 100%; Test G disease control rating (Septoria tritici; 200 ppm, 0 = no control): 100%; Test C disease control rating (Botrytis cinerea; 200 ppm, 0 = no control): 99%; Test J disease control rating ([2]; 200 ppm, 0 = no control): 100%; Test F disease control rating (Septoria nodorum; 200 ppm, 0 = no control): 99%
Fc1ccc(-c2c(Cl)nc(Br)n2-c2ccc(Cl)cc2)c(Cl)c1 [compound 51]	97	100	94	94	99	100	
Cc1nc(Cl)c(-c2c(F)cccc2C(F)(F)F)n1-c1ccc(Cl)cc1 [compound 94]	99	53	95	56	100	0	
COc1cc(F)c(-n2c(C)nc(C)c2-c2ccc(Cl)cc2)c(F)c1 [compound 249]							Test I disease control rating [1, 4]: 74* %; Test D disease control rating (Alternaria solani; [4]): 99* %; Test G disease control rating (Septoria tritici; [4]): 93* %; Test C disease control rating (Botrytis cinerea; [4]): 100* %; Test J disease control rating [2, 4]: 81* %; Test F disease control rating (Septoria nodorum; [4]): 73* %
Cc1nc(Cl)n(-c2ccc(Cl)c(F)c2)c1-c1c(F)ccc(F)c1F [compound 389]	99	100	91	98	98	0	
Cc1nn(C)c(-c2c(Cl)cccc2Cl)c1-c1cccc(F)c1 [compound 88]	68	0	0	75	99	0	
COc1cc(F)c(-c2c(-c3ccc(Cl)c(F)c3)c(C)nn2C)c(F)c1 [compound 79]	92	97	95	53	100	0	
Cc1nc(Cl)c(-c2c(F)cccc2F)n1-c1ccc(Cl)c(F)c1 [compound 247]							Test I disease control rating ([1]; 200 ppm, 0 = no control): 100%; Test D disease control rating (Alternaria solani; 200 ppm, 0 = no control): 100%; Test G disease control rating (Septoria tritici; 200 ppm, 0 = no control): 97%; Test C disease control rating (Botrytis cinerea; 200 ppm, 0 = no control): 100%; Test J disease control rating ([2]; 200 ppm, 0 = no control): 100%; Test F disease control rating (Septoria nodorum; 200 ppm, 0 = no control): 100%
COc1ccc(F)c(-c2c(Cl)nc(Br)n2-c2ccc(Cl)cc2)c1F [compound 117]	99	100	97	96	100	99	
COc1cc(F)c(-c2c(Cl)ncn2-c2ccc(Cl)cc2)c(Cl)c1 [compound 132]	74	98	92	94	97	0	
COc1cc(Cl)cc(F)c1-c1c(Cl)nc(Br)n1-c1ccc(Cl)cc1 [compound 140]	55	0	93	0	39	0	
Cc1ccc(F)c(-c2c(Cl)nc(C)n2-c2ccc(Cl)cc2)c1F [compound 107]	100	100	96	96	100	100	
COc1cc(F)c(-c2c(C)nc(Cl)n2-c2ccc(Cl)c(F)c2)c(F)c1 [compound 261]							Test I disease control rating ([1]; 200 ppm, 0 = no control): 100%; Test D disease control rating (Alternaria solani; 200 ppm, 0 = no control): 100%; Test G disease control rating (Septoria tritici; 200 ppm, 0 = no control): 95%; Test C disease control rating (Botrytis cinerea; 200 ppm, 0 = no control): 99%; Test J disease control rating ([2]; 200 ppm, 0 = no control): 100%; Test F disease control rating (Septoria nodorum; 200 ppm, 0 = no control): 100%
Fc1cccc(F)c1-c1c(Cl)nc(Br)n1Cc1ccc(Cl)cc1 [compound 103]	100	92	98	79	99	90	
Cc1nc(Cl)c(-c2ccc(F)cc2Cl)n1-c1ccc(F)cc1 [compound 187]							Test I disease control rating ([1]; 200 ppm, 0 = no control): 100%; Test D disease control rating (Alternaria solani; 200 ppm, 0 = no control): 100%; Test G disease control rating (Septoria tritici; 200 ppm, 0 = no control): 97%; Test C disease control rating (Botrytis cinerea; 200 ppm, 0 = no control): 99%; Test J disease control rating ([2]; 200 ppm, 0 = no control): 100%; Test F disease control rating (Septoria nodorum; 200 ppm, 0 = no control): 94%
COc1ccc(F)c(-c2c(Cl)nc(Br)n2-c2ccc(I)cc2)c1F [compound 443]	89	99	97	99	100	99	
Cc1nc(Cl)c(-c2c(F)cccc2Cl)n1-c1ccc(F)cc1 [compound 189]							Test I disease control rating ([1]; 200 ppm, 0 = no control): 100%; Test D disease control rating (Alternaria solani; 200 ppm, 0 = no control): 100%; Test G disease control rating (Septoria tritici; 200 ppm, 0 = no control): 97%; Test C disease control rating (Botrytis cinerea; 200 ppm, 0 = no control): 98%; Test J disease control rating ([2]; 200 ppm, 0 = no control): 99%; Test F disease control rating (Septoria nodorum; 200 ppm, 0 = no control): 51%
